# Tests used:
# LS411N tumors = test: In vivo efficacy study, tumor volume, LS411N xenograft; set-up: species or system human xenograft in female BALB/c nude mice; conditions: BID oral, 21 days; FIG. 4B
# Procedure: In vivo Efficacy Study: Experiments were performed in female BALB/c nude mice (GenPharmatech Co.). Animals were allowed to acclimate for 7 days before the study. The general health of the animals were evaluated by a veterinarian, and complete health checks were performed prior to the study. General procedures for animal care and housing were in accordance with the standard, Commission on Life Sciences, National Research Council, Standard Operating Procedures (SOPs) of Pharmaron, Inc. The mice were kept in laminar flow rooms at constant temperature and humidity with 3-5 mice in each cage. Animals were housed in polycarbonate cage which is the size of 300×180×150 mm^3 and in an environmentally monitored, well-ventilated room maintained at a temperature of (23±3° C.) and a relative humidity of 40% 70%. Fluorescent lighting provided illumination approximately 12 hours per day. […]
# The LS411N (ATCC; CRL-2159) tumor cell lines were maintained in vitro as monolayer in RPMI 1640 medium supplemented with 10% heat inactivated FBS, at 37° C. in an atmosphere of 5% CO2 in air. The tumor cells were sub-cultured, not exceeding 4-5 passages, and cells growing in an exponential growth phase were harvested and counted for tumor inoculation. […]
# The measurement of tumor size was conducted with a caliper and recorded twice per week. […]
# [1] = Intra-tumoral pharmacokinetics bioanalytical assay; format: in vivo, female BALB/c nude mice; conditions: BID oral, 21 days; four parameter non-linear regression; FIG. 4C
# Procedure: Intra-tumoral Pharmacokinetics Bioanalytical Assay: Tumors were collected at 1 h and 12 h post the last dose and cut into 3 pieces. One piece of the tumor was weighted and snap frozen for drug exposure analysis. On the assay day, 3 volumes of H2O were added to the tumor tissue (3 mL to each gram of tissue), and homogenate at 4 degrees Celsius. The homogenate (30 μL) was mixed with 15 μL blank solution, then extracted and protein precipitation with 200 μL of acetonitrile containing IS (internal standard, dexamethasone). After vortexed for 30 s, the samples were centrifuged at 4 degrees Celsius, 3900 rpm for 15 minutes. The supernatant was diluted 3 times with water and 2 μL of diluted supernatant was injected into the LC/MS/MS system for quantitative analysis (AB API 5500). The Q1 to Q3 mass transition (m/z, Da) were 393.11 to 373.10 for dexamethasone and 421.98 to 202.30 for test compound. […]
# The concentration in the homogenate was quantified using standards prepared in control tumor tissues with concentrations range 0.5, 1, 2, 5, 10, 50, 100, 500, 1000 ng/mL. The determined concentration in the tumor homogenate was then back calculated to that in tumor tissue by multiplying with a dilution factor of 4.
# frozen PBMCs = test: circBRIP1 level in frozen human PBMCs; format: cell-based; conditions: 10 μM, 24 hours, frozen PBMCs from three donors, vs vehicle; FIG. 8A
# Procedure: As proof of concept, circBRIP1 levels were examined in peripheral blood mononuclear cells (PMBCs) using frozen PBMCs from donors after treatment with a DHX9 inhibitor.
# Frozen PBMCs were thawed in a 37° C. water bath, washed, and reconstituted in media. The same number of cells were added to each well of 12-well plates and let rest for 2 hours before being subjected to testing conditions. Compound 1 was dissolved in DMSO at 10 mM as a stock solution, and diluted to a desired concentration. Frozen PBMCs from three donors or LS411N cells (positive control) were treated with 10 μM of Compound 1 or control vehicle for 24 hours. The circBRIP1 level was determined using methods essentially as described above.
# human PBMC = test: circular and linear BRIP1 mRNA in fresh human PBMC (whole blood treated) by qPCR; format: cell-based; conditions: 24 hours, varying concentrations, FIGS. 9A-9D
# Procedure: This study was conducted to evaluate the circular format of BRIP1 mRNA in fresh human PBMC cells by qPCR.
# Human whole blood was obtained from Research Blood Components. Blood of each donor was aliquoted into vacutainer tubes containing Acid Citrate Dextrose (ACD).
# Test compounds were prepared in DMSO stock solution and serially diluted. Compound (0.1% final DMSO concentration) was added to vacutainer tubes containing human whole blood. Tubes were placed in tube rotator and incubated at 37 C for 24 hours.
# PBMCs were isolated from human whole blood after compound treatment by density gradient centrifugation using Ficoll-Paque Plus. RNA was extracted from PBMCs using RNeasy Plus Kits according to the manufacturer's (Qiagen) protocol. cDNA was reverse transcribed using RT^2 First Strand Kit according to the manufacturer's (Qiagen) protocol. […]
# Data analysis was performed by using the QuantStudio Thermocycler software to determine threshold Ct values. ΔCt for circBRIP1 or linBRIP1 was calculated by normalizing the target gene Ct to the GAPDH housekeeping gene Ct for each sample. The inhibition activity was calculated by the following formula, whereas: […]
smiles,measurement,setting,value
"Cc1cccnc1-c1csc(C(=O)Nc2cc(Cl)cc(NS(C)(=O)=O)c2)c1 [Compound 1, N-(3-chloro-5-methanesulfonamidophenyl)-4-(3-methylpyridin-2-yl)thiophene-2-carboxamide]",correlation of tumor volume to circBRIP1 induction,LS411N tumors,correlate to circBRIP1 induction
same,correlation of tumor drug exposure to circBRIP1 induction,[1],correlate to circBRIP1 induction
same,circBRIP1 level in PBMCs,frozen PBMCs,significantly elevated
same,human circBRIP1 in PBMCs of donor blood,human PBMC,induced the presence of human circBRIP1 in a dose-responsive manner
same,linear BRIP1 in PBMCs of donor blood,human PBMC,not significantly changed

# Source: patent US20260297679A1, “ASSAYS FOR MONITORING INHIBITION OF RNA HELICASE DHX9” (ACCENT THERAPEUTICS, INC., priority 2023, published 2026)
